Experimental data taken from patent US12383512B2, “Cannabidiol-type cannabinoid compound” (Jazz Pharmaceuticals Research UK LImited, priority 2019, dated 2025).

Tests used:
[1] = system: tonic hind limb extensor seizure following corneally delivered electroshock in mice; experiment: Supramaximal electroshock seizure (MES) test in the mouse; format: in vivo; settings: 250 mg/kg i.p., pre-treatment time 30 min
Experimental: The MES test is a very stringent model in which mice receive a predetermined high-level electrical stimulus of sufficient intensity to reliably produce tonic hindlimb extensor seizures in 100% of control animals. As such the MES test is a rigorous evaluation of anticonvulsant activity (Swinyard, 1985).
Animals were dosed i.p. according to treatment group. […]
In addition, a dose of 100 mg/kg CBD was given at 10 ml/kg i.p. at 120 minutes pre-treatment time to assess the effect of the drug over a longer time course.
The positive control valproate was used at 250 mg/kg (10 ml/kg i.p. 30 min pre-treatment time).
Induction of seizure is measured as an all-or-nothing effect scored as either present (+) or absent (0) for each animal.
Data was collected by an observer unaware of the treatment for each animal and was expressed as the number of +'s or 0's for each treatment group.
The percentage inhibition of relevant vehicle treated group (the protection relative to vehicle treated controls) was then generated.
Significant differences between individual treatment groups and vehicle-treated groups were assessed using 2-tailed Fisher's Exact Probability test (p<0.05 considered significant).

[2] = system: seizure threshold current for tonic hind limb extensor convulsions in mice; experiment: Maximal electroshock seizure threshold (MEST) test in the mouse; settings: MEST test, 2.5 mg/kg i.p., pre-treatment time 30 min
Experimental: The efficacy of 6-OH CBD was tested in a mouse model of generalised seizure, the maximal electroshock seizure threshold (MEST) test.
In the MEST test the ability of a drug to alter the seizure threshold current required to induce hind limb tonic extensor convulsions is measured according to an “up and down” method of shock titration (Kimball et al., 1957). An increase in seizure threshold is indicative of anti-convulsant effect.
The ability of a test compound to alter the stimulus intensity, expressed as current (mA), required to induce the presence of tonic hind limb extensor convulsions, is assessed in the MEST.
Naïve mice were acclimatised to the procedure room in their home cages for up to 7 days, with food and water available ad libitum.
All animals were weighed at the beginning of the study and randomly assigned to treatment groups based on a mean distribution of body weight across groups.
The first animal within a treatment group was given a shock at the expected or estimated CC50 current. For subsequent animals, the current was lowered or raised depending on the convulsions outcome from the preceding animal.
Data generated from each treatment group were used to calculate the CC50±SEM values for the treatment group.
Vehicle: (5% ethanol, 5% solutol, 90% Saline) was prepared as follows: 2 mL of ethanol, 2 mL of solutol were warmed to 60° C., in 36 mL of saline (1:1:18).
The test compound, alpha 6-OH CBD was prepared according to the method described in Example 1. 6-OH CBD was administered at 3, 10 and 30 mg/kg (i.p.) in a 1:1:18 ethanol:solutol:0.9% saline formulation.
6-OH CBD effects were also calculated as percentage change in CC50 from the vehicle control group.
Significant difference between drug-treated animals and controls were assessed according to Litchfield and Wilcoxon (1949).

CCCC(CCC)C(=O)O [Valproate, valproate, reference compound]
% change from vehicle [1]: 100%

CN1C(=O)CN=C(c2ccccc2)c2cc(Cl)ccc21 [Diazepam, diazepam, reference compound]
% change from vehicle (CC50) [2]: 103%
